The test system of one series is Mycolicibacterium aurum. Description: Antimycobacterial activity against Mycobacterium aurum DSM 43999 after 72 hr by resazurin dye based microdilution method. Type of series: functional. The note with it: DSM 43999, 72 h.
For series [1], the system named is HepG2. As to the kind of experiment: Cytotoxicity against human HepG2 cells assessed as reduction in cell viability after overnight incubation by MTT assay. Type of series: cell-based. (Tetrazolium assays rely on reduction of a dye to a coloured formazan, in cell work by metabolically active cells.)
In series [2] the test system is HepG2. As to the kind of experiment: Cytostatic activity against human HepG2 cells preincubated for overnight in serum free medium followed by compound wash out and further incubated for 72 hrs in presence of serum by MTT assay. It counts as ADME, cell-based.
The test system of series [3] is Mycobacterium kansasii. Description: Antimycobacterial activity against Mycobacterium kansasii 235/80 after 14 days. It counts as functional. The settings on record: 235/80, 336 h.
Series [4] deals with Mycobacterium avium. Description: Antimycobacterial activity against Mycobacterium avium 330/88 after 14 days. It counts as functional. The settings on record: 330/88, 336 h.
Series [5] relates to Mycolicibacterium smegmatis. As to the kind of experiment: Antimycobacterial activity against Mycobacterium smegmatis DSM 43465 after 120 hr by resazurin dye based microdilution method. Type of series: functional. The settings on record: DSM 43465, 120 h.
Series [6] has as its system Mycobacterium kansasii. Description: Antimycobacterial activity against Mycobacterium kansasii 235/80 after 21 days. It counts as functional. The settings on record: 235/80, 504 h.
The subject of series [7] is Mycobacterium kansasii. As to the kind of experiment: Potency index, ratio of p-aminosalicylic acid MIC to compound MIC for antimycobacterial activity against Mycobacterium kansasii 6509/96. Type of series: functional.
For series [8], the system named is Mycobacterium kansasii. As to the kind of experiment: Antimycobacterial activity against Mycobacterium kansasii 6509/96 after 7 days. The settings on record: 6509/96, 168 h. It counts as functional.
Series [9] deals with Mycobacterium tuberculosis. Type of series: functional. The note with it: H37Rv 331/88, 504 h.
For series [10], the system named is Mycobacterium tuberculosis. Description: Antimycobacterial activity against Mycobacterium tuberculosis H37Ra ITM-M006710 after 48 hr by resazurin dye based microdilution method. Type of series: functional. The note with it: H37Ra ITM-M006710, 48 h. For orientation: The colour change of resazurin is a common sign of viable cells or microbes.
Series [11] concerns Mycobacterium kansasii. Description: Antimycobacterial activity against Mycobacterium kansasii 6509/96 after 14 days. It counts as functional. The note with it: 6509/96, 336 h.
Series [12] has as its system Mycobacterium kansasii. Description: Potency index, ratio of p-aminosalicylic acid MIC to compound MIC for antimycobacterial activity against Mycobacterium kansasii 235/80. Type of series: functional.
For series [13], the system named is Mycobacterium tuberculosis. It counts as functional. The settings on record: H37Rv 331/88, 336 h.
A further series is described as follows: in vitro. The note with it: human, HepG2 cells.
Series [14] concerns Mycobacterium kansasii. As to the kind of experiment: Antimycobacterial activity against Mycobacterium kansasii 235/80 after 7 days. Type of series: functional. The note with it: 235/80, 168 h.
The subject of series [15] is Mycobacterium tuberculosis. It counts as functional, H37Rv 331/88. Further details: reference not given here.
Series [16] deals with Mycobacterium kansasii. Description: Antimycobacterial activity against Mycobacterium kansasii 6509/96 after 21 days. Type of series: functional. The settings on record: 6509/96, 504 h.
In series [17] the test system is Mycobacterium avium. As to the kind of experiment: Antimycobacterial activity against Mycobacterium avium 330/88 after 21 days. The note with it: 330/88, 504 h. It counts as functional.
The subject of series [18] is Mycobacterium tuberculosis H37Rv. As to the kind of experiment: Inhibition of recombinant Mycobacterium tuberculosis H37Rv ICL1 expressed in Escherichia coli BL21 (DE3) cells at 10 uM using (+)-potassium Ds-threo-isocitrate as substrate by glyoxylate phenyl hydrazone formation assay relative to control.

Values after ≈ are worked out from the molar mass of the structure shown. A value given as a limit tells only on which side of the number the result lay.

Description for in vitro: Selectivity index, ratio of IC50 for human HepG2 cells to MIC for antimycobacterial activity against Mycobacterium tuberculosis H37Rv

For `O=C(NCc1ccccc1)Oc1ccc(Cl)cc1C(=O)Nc1ccc(F)cc1`, the MIC (commonly the least concentration at which growth counts as inhibited) against Mycolicibacterium aurum was determined as 3.12 µg/mL (≈ 7.84 µM); against Mycobacterium kansasii [3], 32 µM (≈ 12.8 µg/mL); in the series with Mycobacterium avium [4], 62.5 µM (≈ 24.9 µg/mL); in series [5], 3.12 µg/mL (≈ 7.84 µM); in the series on Mycobacterium kansasii [6] it was 32 µM (≈ 12.8 µg/mL); against Mycobacterium kansasii [8], 16 µM (≈ 6.38 µg/mL). Moreover, the MIC amounted to 16 µM (≈ 6.38 µg/mL) in [9]; 3.12 µg/mL (≈ 7.84 µM) in series [10]; 32 µM (≈ 12.8 µg/mL) with Mycobacterium kansasii [11]; 8 µM (≈ 3.19 µg/mL) in series [13]; 16 µM (≈ 6.38 µg/mL) against Mycobacterium kansasii [14]; 32 µM (≈ 12.8 µg/mL) against Mycobacterium kansasii [16]. This molecule also registered an MIC against Mycobacterium avium [17] of 62.5 µM (≈ 24.9 µg/mL). Moreover, the IC50 (usually the concentration that gives 50% inhibition) in the series on HepG2 [1] was above 125 µM; with HepG2 [2], 34.1 µM. The Ratio is reported as above 250 with Mycobacterium kansasii [7], above 250 in the series with Mycobacterium kansasii [12] and above 125 in series [15]. The selectivity ratio in “in vitro” was above 7.8. Further, the inhibition – broadly, how much of the control response was suppressed – in series [18] was 15%.

Regarding `O=C(NCCc1ccccc1)Oc1ccc(Cl)cc1C(=O)Nc1ccc(F)cc1`, the MIC against Mycolicibacterium aurum is 3.12 µg/mL (≈ 7.57 µM); in the series on Mycobacterium kansasii [3] it was 16 µM (≈ 6.61 µg/mL); against Mycobacterium avium [4], 32 µM (≈ 13.2 µg/mL); in [5], 3.12 µg/mL (≈ 7.57 µM); against Mycobacterium kansasii [6], 16 µM (≈ 6.61 µg/mL); with Mycobacterium kansasii [8] it was 8 µM (≈ 3.3 µg/mL). Besides, the MIC in series [9] worked out at 4 µM (≈ 1.65 µg/mL); in [10] it was 3.12 µg/mL (≈ 7.57 µM); against Mycobacterium kansasii [11], 16 µM (≈ 6.61 µg/mL); in series [13] it was 4 µM (≈ 1.65 µg/mL); against Mycobacterium kansasii [14] it was 8 µM (≈ 3.3 µg/mL); in the series on Mycobacterium kansasii [16], 16 µM (≈ 6.61 µg/mL). Further, the MIC with Mycobacterium avium [17] is 32 µM (≈ 13.2 µg/mL). In addition, the IC50 came to 41.5 µM in the series on HepG2 [1] and 7.6 µM with HepG2 [2]. Also, the values for the Ratio (with Mycobacterium kansasii [7]; in the series with Mycobacterium kansasii [12]; in series [15]) were above 250, above 250 and above 125, respectively. In addition, the selectivity ratio in “in vitro” amounted to 10.4. Besides, the inhibition in series [18] is 15%.

Consider `O=C(NCc1ccccc1)Oc1ccc(Cl)cc1C(=O)Nc1ccc(Cl)cc1`, for which the MIC in the series with Mycolicibacterium aurum was 1.56 µg/mL (≈ 3.76 µM); with Mycobacterium kansasii [3], 8 µM (≈ 3.32 µg/mL); against Mycobacterium avium [4] it was 8 µM (≈ 3.32 µg/mL); in series [5] it was 1.56 µg/mL (≈ 3.76 µM); in the series on Mycobacterium kansasii [6] it was 16 µM (≈ 6.64 µg/mL); against Mycobacterium kansasii [8], 4 µM (≈ 1.66 µg/mL). The MIC in [9] amounted to 16 µM (≈ 6.64 µg/mL); in series [10], 1.56 µg/mL (≈ 3.76 µM); against Mycobacterium kansasii [11], 8 µM (≈ 3.32 µg/mL); in [13], 16 µM (≈ 6.64 µg/mL); in the series with Mycobacterium kansasii [14], 8 µM (≈ 3.32 µg/mL); against Mycobacterium kansasii [16], 8 µM (≈ 3.32 µg/mL). Besides, the MIC with Mycobacterium avium [17] was 16 µM (≈ 6.64 µg/mL). The values for the IC50 with HepG2 [1] and in the series with HepG2 [2] were above 250 µM and 6.4 µM, respectively. For the same molecule, the Ratio in the series on Mycobacterium kansasii [7] is on record as above 250; in the series with Mycobacterium kansasii [12] it was above 250; in series [15], above 125. Besides, the selectivity ratio in the series “in vitro” is above 15.6. Also, in series [18], the inhibition is 11%.

Take `O=C(NC1CCCCC1)Oc1ccc(Cl)cc1C(=O)Nc1ccc(Br)cc1`: the MIC in the series with Mycolicibacterium aurum came to 1.56 µg/mL (≈ 3.45 µM); in the series on Mycobacterium kansasii [3] it was 8 µM (≈ 3.61 µg/mL); with Mycobacterium avium [4], 8 µM (≈ 3.61 µg/mL); in [5], 1.56 µg/mL (≈ 3.45 µM); in the series with Mycobacterium kansasii [6], 8 µM (≈ 3.61 µg/mL); against Mycobacterium kansasii [8], 4 µM (≈ 1.81 µg/mL). The MIC in series [9] was 16 µM (≈ 7.23 µg/mL); in series [10], 1.56 µg/mL (≈ 3.45 µM); in the series on Mycobacterium kansasii [11], 8 µM (≈ 3.61 µg/mL); in [13], 8 µM (≈ 3.61 µg/mL); in the series on Mycobacterium kansasii [14], 4 µM (≈ 1.81 µg/mL); against Mycobacterium kansasii [16], 8 µM (≈ 3.61 µg/mL). The molecule further showed an MIC in the series with Mycobacterium avium [17] of 16 µM (≈ 7.23 µg/mL). Also, the IC50 in the series on HepG2 [1] is above 50 µM; in the series on HepG2 [2], 9.4 µM. Moreover, the values for the Ratio (in the series with Mycobacterium kansasii [7]; in the series on Mycobacterium kansasii [12]; in [15]) were above 250, above 250 and above 125, respectively. Also, in “in vitro”, the selectivity ratio was above 6.3. For the same molecule, the inhibition in [18] came to 16%.

On to `O=C(NCc1ccccc1)Oc1ccc(Cl)cc1`, for which the MIC was determined as 125 µg/mL (≈ 478 µM) in the series on Mycolicibacterium aurum; 250 µM (≈ 65.4 µg/mL) against Mycobacterium kansasii [3]; 500 µM (≈ 131 µg/mL) in the series with Mycobacterium avium [4]; 152 µg/mL (≈ 581 µM) in [5]; 500 µM (≈ 131 µg/mL) in the series with Mycobacterium kansasii [6]; 125 µM (≈ 32.7 µg/mL) against Mycobacterium kansasii [8]. In addition, the MIC in series [9] came out at 250 µM (≈ 65.4 µg/mL); in series [10] it was 31.2 µg/mL (≈ 119 µM); in the series with Mycobacterium kansasii [11], 250 µM (≈ 65.4 µg/mL); in [13], 125 µM (≈ 32.7 µg/mL); in the series on Mycobacterium kansasii [14], 125 µM (≈ 32.7 µg/mL); in the series with Mycobacterium kansasii [16] it was 500 µM (≈ 131 µg/mL). Further, it took 500 µM (≈ 131 µg/mL) to inhibit growth in the series with Mycobacterium avium [17] (MIC). In addition, the IC50 in the series with HepG2 [1] and in the series with HepG2 [2] was above 125 µM throughout. Further, in “in vitro”, the selectivity ratio was above 0.5. In series [18], the inhibition was 14%.

For the origin of these results see ChEMBL document CHEMBL4406824, “Phenolic N-monosubstituted carbamates: Antitubercular and toxicity evaluation of multi-targeting compounds” (Eur J Med Chem, 2019).
